Data as given in ChEMBL document CHEMBL5506031, “Design, Synthesis, Bioactive Evaluation, and Molecular Dynamics Simulation of Novel 4H-Pyrano[3,2-c]pyridine Analogues as Potential Sterol 14α-Demethylase (CYP51) Inhibitors” (J Med Chem, 2024).
Values after ≈ are worked out from the molar mass of the structure shown.

system: Sclerotinia sclerotiorum; test: Fungicidal activity against Sclerotinia sclerotiorum assessed as fungal inhibitory rate at 16 ug/ml relative to control; assay type: functional

| Structure (SMILES) | inhibition at 16 µg/mL |
| --- | --- |
| COC(=O)C1=C(N)OC2=C(CN(C)C/C2=C\c2ccc(Cl)s2)C1c1ccc(Cl)s1 (centres undefined) | 49.6% |
| COC(=O)C1=C(N)OC2=C(CN(C(=O)c3ccco3)C/C2=C\c2cccs2)C1c1cccs1 (centres undefined) | 43.4% |
| COC(=O)C1=C(N)OC2=C(CN(C)C/C2=C\c2cccs2)C1c1cccs1 (centres undefined) | 57.2% |
| COC(=O)C1=C(N)OC2=C(CN(C)C/C2=C\c2ccco2)C1c1ccco1 (centres undefined) | 73.7% |
| N#CC1=C(N)OC2=C(CN(C(=O)c3ccco3)C/C2=C\c2ccc(Br)s2)C1c1ccc(Br)s1 (centres undefined) | 31.6% |
| Cc1ccc(/C=C2\CN(C(=O)c3cccs3)CC3=C2OC(N)=C(C#N)C3c2ccc(C)o2)o1 (centres undefined) | 24.7% |
| Cc1ccc(/C=C2\CN(C)CC3=C2OC(N)=C(C#N)C3c2ccc(C)s2)s1 (centres undefined) | 58.6% |

system: Colletotrichum lagenaria; test: Fungicidal activity against Colletotrichum lagenarium assessed as fungal inhibitory rate at 16 ug/ml relative to control; assay type: functional

| Structure (SMILES) | inhibition at 16 µg/mL |
| --- | --- |
| Cc1ccc(/C=C2\CN(C(=O)c3ccco3)CC3=C2OC(N)=C(C#N)C3c2ccc(C)s2)s1 (centres undefined) | 31.1% |
| COC(=O)C1=C(N)OC2=C(CN(C)C/C2=C\c2ccc(Cl)s2)C1c1ccc(Cl)s1 (centres undefined) | 42.9% |
| COC(=O)C1=C(N)OC2=C(CN(C(=O)c3ccco3)C/C2=C\c2cccs2)C1c1cccs1 (centres undefined) | 38.2% |
| COC(=O)C1=C(N)OC2=C(CN(C)C/C2=C\c2cccs2)C1c1cccs1 (centres undefined) | 51.8% |
| COC(=O)C1=C(N)OC2=C(CN(C)C/C2=C\c2ccco2)C1c1ccco1 (centres undefined) | 76.5% |
| N#CC1=C(N)OC2=C(CN(C(=O)c3ccco3)C/C2=C\c2ccc(Br)s2)C1c1ccc(Br)s1 (centres undefined) | 28.1% |
| COC(=O)C1=C(N)OC2=C(CN(C(=O)c3ccco3)C/C2=C\c2ccc(Cl)s2)C1c1ccc(Cl)s1 (centres undefined) | 75.7% |
| Cc1ccc(/C=C2\CN(C(=O)c3cccs3)CC3=C2OC(N)=C(C#N)C3c2ccc(C)o2)o1 (centres undefined) | 23.4% |
| Cc1ccc(/C=C2\CN(C)CC3=C2OC(N)=C(C#N)C3c2ccc(C)s2)s1 (centres undefined) | 57.6% |

system: Botrytis cinerea; test: Fungicidal activity against Botrytis cinerea assessed as fungal inhibitory rate at 16 ug/ml relative to control; assay type: functional

| Structure (SMILES) | inhibition at 16 µg/mL |
| --- | --- |
| Cc1ccc(/C=C2\CN(C(=O)c3ccco3)CC3=C2OC(N)=C(C#N)C3c2ccc(C)s2)s1 (centres undefined) | 70.1% |
| COC(=O)C1=C(N)OC2=C(CN(C)C/C2=C\c2ccc(Cl)s2)C1c1ccc(Cl)s1 (centres undefined) | 35.2% |
| COC(=O)C1=C(N)OC2=C(CN(C(=O)c3ccco3)C/C2=C\c2cccs2)C1c1cccs1 (centres undefined) | 82.2% |
| COC(=O)C1=C(N)OC2=C(CN(C)C/C2=C\c2cccs2)C1c1cccs1 (centres undefined) | 38.8% |
| COC(=O)C1=C(N)OC2=C(CN(C)C/C2=C\c2ccco2)C1c1ccco1 (centres undefined) | 56.7% |
| N#CC1=C(N)OC2=C(CN(C(=O)c3ccco3)C/C2=C\c2ccc(Br)s2)C1c1ccc(Br)s1 (centres undefined) | 66.5% |
| COC(=O)C1=C(N)OC2=C(CN(C(=O)c3ccco3)C/C2=C\c2ccc(Cl)s2)C1c1ccc(Cl)s1 (centres undefined) | 100% |
| Cc1ccc(/C=C2\CN(C(=O)c3cccs3)CC3=C2OC(N)=C(C#N)C3c2ccc(C)o2)o1 (centres undefined) | 56.9% |

system: Penicillium digitatum; test: Fungicidal activity against Penicillium digitatum assessed as fungal inhibitory rate at 16 ug/ml relative to control; assay type: functional

| Structure (SMILES) | inhibition at 16 µg/mL |
| --- | --- |
| Cc1ccc(/C=C2\CN(C(=O)c3ccco3)CC3=C2OC(N)=C(C#N)C3c2ccc(C)s2)s1 (centres undefined) | 28.5% |
| COC(=O)C1=C(N)OC2=C(CN(C)C/C2=C\c2ccc(Cl)s2)C1c1ccc(Cl)s1 (centres undefined) | 30% |
| COC(=O)C1=C(N)OC2=C(CN(C(=O)c3ccco3)C/C2=C\c2cccs2)C1c1cccs1 (centres undefined) | 36.1% |
| COC(=O)C1=C(N)OC2=C(CN(C)C/C2=C\c2cccs2)C1c1cccs1 (centres undefined) | 34.2% |
| COC(=O)C1=C(N)OC2=C(CN(C)C/C2=C\c2ccco2)C1c1ccco1 (centres undefined) | 60.9% |
| N#CC1=C(N)OC2=C(CN(C(=O)c3ccco3)C/C2=C\c2ccc(Br)s2)C1c1ccc(Br)s1 (centres undefined) | 25.7% |
| COC(=O)C1=C(N)OC2=C(CN(C(=O)c3ccco3)C/C2=C\c2ccc(Cl)s2)C1c1ccc(Cl)s1 (centres undefined) | 70% |
| Cc1ccc(/C=C2\CN(C(=O)c3cccs3)CC3=C2OC(N)=C(C#N)C3c2ccc(C)o2)o1 (centres undefined) | 21.9% |
| Cc1ccc(/C=C2\CN(C)CC3=C2OC(N)=C(C#N)C3c2ccc(C)s2)s1 (centres undefined) | 38.9% |

system: Fusarium oxysporum; test: Fungicidal activity against Fusarium oxysporum assessed as fungal inhibitory rate at 16 ug/ml relative to control; assay type: functional

| Structure (SMILES) | inhibition at 16 µg/mL |
| --- | --- |
| Cc1ccc(/C=C2\CN(C(=O)c3ccco3)CC3=C2OC(N)=C(C#N)C3c2ccc(C)s2)s1 (centres undefined) | 27.6% |
| COC(=O)C1=C(N)OC2=C(CN(C)C/C2=C\c2ccc(Cl)s2)C1c1ccc(Cl)s1 (centres undefined) | 23.6% |
| COC(=O)C1=C(N)OC2=C(CN(C(=O)c3ccco3)C/C2=C\c2cccs2)C1c1cccs1 (centres undefined) | 34% |
| COC(=O)C1=C(N)OC2=C(CN(C)C/C2=C\c2cccs2)C1c1cccs1 (centres undefined) | 25.8% |
| COC(=O)C1=C(N)OC2=C(CN(C)C/C2=C\c2ccco2)C1c1ccco1 (centres undefined) | 41.7% |
| N#CC1=C(N)OC2=C(CN(C(=O)c3ccco3)C/C2=C\c2ccc(Br)s2)C1c1ccc(Br)s1 (centres undefined) | 25% |
| COC(=O)C1=C(N)OC2=C(CN(C(=O)c3ccco3)C/C2=C\c2ccc(Cl)s2)C1c1ccc(Cl)s1 (centres undefined) | 77.7% |
| Cc1ccc(/C=C2\CN(C(=O)c3cccs3)CC3=C2OC(N)=C(C#N)C3c2ccc(C)o2)o1 (centres undefined) | 22.9% |
| Cc1ccc(/C=C2\CN(C)CC3=C2OC(N)=C(C#N)C3c2ccc(C)s2)s1 (centres undefined) | 27.6% |

system: Botrytis cinerea; test: Fungicidal activity against Botrytis cinerea assessed as fungal growth reduction; assay type: functional, organism-based

| Structure (SMILES) | EC50 |
| --- | --- |
| COC(=O)C1=C(N)OC2=C(CN(C(=O)c3ccco3)C/C2=C\c2ccc(Cl)s2)C1c1ccc(Cl)s1 (centres undefined) | 0.761 µg/mL (≈ 1.39 µM) |

system: not listed separately; test: Inhibition of Botrytis cinerea CYP51 by ELISA

| IC50 | Structure (SMILES) |
| --- | --- |
| 0.831 µg/mL (≈ 1.51 µM) | COC(=O)C1=C(N)OC2=C(CN(C(=O)c3ccco3)C/C2=C\c2ccc(Cl)s2)C1c1ccc(Cl)s1 (centres undefined) |
